Laboratory results from article PMC7211195 (Investigational New Drugs, 2019).
Read-outs that look alike come from different tables or passages of the source.

What was measured:
[1] = Stability of lapatinib in QC samples, BP samples and standard solutions; assay type: physicochemical; details: for stability, deviation: low and high QC samples
Description: Data acquisition and processing were controlled with Analyst 1.5.2 software (Sciex, Framingham, USA).

[2] = Lapatinib pharmacokinetics and uptake in rat cerebrospinal fluid (CSF); assay type: in vivo, rats; details: male, Wistar, po, 100 mg/kg, lapatinib p.o. 100 mg/kg alone, read-out: Clapatinib in CSF, single rat
[3] = Lapatinib pharmacokinetics in rat blood plasma (BP), HPLC-MS/MS, noncompartmental analysis; assay type: in vivo, rats; details: for MRT last: read-out: MRT0-t
Protocol: This study was conducted on rats, which are a promising model to predict P-gp-based drug-drug interactions at the human BBB [15]. The animals were allowed to acclimate for one week before the beginning of the experiments. Adult male Wistar-strain rats (weight 470–525 g) were used in the study. The animals were maintained under standard breeding conditions with a 12/12 h light-dark cycle (lights on at 6.00 a.m., lights off at 6.00 p.m.) at constant room temperature (23 ± 2 °C), relative humidity (55 ± 10%) and ad libitum access to food and water. The experimental protocol for this study was reviewed and approved by the Local Ethics Committee. To obtain consistent data, the study was based on the required minimum number of animals and observation time. […] Three rats were used at each time point (n = 3). In total, the research was conducted on 66 animals (n = 33 in the experimental group and n = 33 in the control group).
Elacridar was freshly dissolved in a vehicle at an initial concentration of 20 mg/mL. […] A volume of 80 μL of blood was collected from each rat by cutting off a piece of its tail. The blood samples were collected into heparinized test tubes at the following time points: […], and they were immediately centrifuged at 2880 g for 10 min at 4 °C. The anaesthetized rats (anaesthetized by intramuscular administration of 50 mg/kg ketamine and 10 mg/kg xylazine) were prepared for cisterna magna puncture. The hair over the puncture was removed and the skin was disinfected with alcohol. The animals were placed in a recumbent position with an elevated rear part of the body. The animals’ heads were slightly flexed and immobilized with the operator’s left hand. The space between the occiput rostrally and the atlas (C1) of the spinal column caudally was gently palpated with the left thumb. A 0.7 × 20 G needle with polyethylene tubing (Terumo Poland, Warsaw, Poland) was gently inserted at an approximate angle of 80–90° through the skin with the operator’s right hand into the midsagittal region. The moment that dura mater perforation was perceptible, a small amount of CSF was found in the needle tubing. To sample additional CSF, a 1 mL insulin syringe (Becton Dickinson, Warsaw, Poland) was used to collect 80–120 μL of CSF by very gentle aspiration. Only clear CSF was collected for further analysis. […] The animals’ brains were immediately dissected, washed in 0.9% NaCl and divided along the longitudinal axis. One of the brain hemispheres was again rinsed three times with 5 mL of 0.9% NaCl, weighed and homogenized with 0.9% NaCl (4 mL per 1 g of BT) in an Ultra-Turrax homogenizer (Witko, Łódź, Poland). The homogenate was then centrifuged at 4500 g for 10 min. All samples of the rat BP, CSF, and BT homogenate supernatant were stored at −80 °C until analysis.
The chromatographic analysis was conducted using a 1260 Infinity system (Agilent Technologies, Santa Clara, USA) equipped with a Kinetex® C18 column (50 × 4.6 mm, 2.6 μm, Phenomenex, Torrance, USA), which was maintained at 35 °C. The mobile phase consisted of 0.1% formic acid (v/v) in water with 5 mM ammonium formate (solvent A) and acetonitrile with 10% phase A (v/v, solvent B). The analyte and internal standard (IS, erlotinib) were eluted using a gradient run of 10 min as follows: 95% A at 0–2 min; 95%–5% A at 2–4 min; 5% A at 4–5 min; 5%–95% A at 5–6 min; 95% A at 6–10 min. The flow rate and injection volume were set at 0.7 mL/min and 10 μL, respectively. The needle was washed for 30 s in a mixture of acetonitrile, methanol, isopropanol, water, and formic acid (50:20:15:15:0.25, v/v/v/v/v).

[4] = design: method as in PMID 25547867; details: cited from earlier work
[5] = blood plasma, lapatinib 100 mg/kg oral + 5 mg/kg elacridar (IE+L)
[6] = male, Wistar, rat, plasma, oral, lapatinib 100 mg/kg + elacridar, read-out: Clapatinib in BP, S
[7] = male, Wistar, rat, plasma, oral, lapatinib 100 mg/kg + elacridar, read-out: Clapatinib in BP, single rat
[8] = male, Wistar, rat, plasma, po, 100 mg/kg, blood plasma, lapatinib 100 mg/kg oral + 5 mg/kg elacridar (IE+L)
[9] = male, Wistar, rat, plasma, po, 100 mg/kg, blood plasma, lapatinib 100 mg/kg oral alone (IIL)
[10] = male, Wistar, rat, plasma, po, 100 mg/kg, lapatinib p.o. 100 mg/kg alone, read-out: Clapatinib in BP, S (medium value)
[11] = male, Wistar, rat, plasma, po, 100 mg/kg, lapatinib p.o. 100 mg/kg alone, read-out: Clapatinib in BP, single rat

With CS(=O)(=O)CCNCc1ccc(-c2ccc3ncnc(Nc4ccc(OCc5cccc(F)c5)c(Cl)c4)c3c2)o1 [lapatinib, N-{3-Chloro-4-[(3-fluorobenzyl)oxy]phenyl}-6-[5-({[2-(methylsulfonyl)ethyl]amino}methyl)-2-furyl]-4-quinazolinamine] the “postpreparative stability, change in the concentration” value ([1]; BP samples and standard solutions, 24 h and 48 h in the autosampler at 4 °C) was under 15%, the “stability, deviation” value ([1]; three freeze-thaw cycles at −80 °C) was under 5% and the “stability, deviation” value ([1]; three months of storage at −80 °C) was under 15%. The concentration at 0.25 h [2] was 4.47 ng/mL, the “plasma AUC0-t higher in IE+L than in IIL” value ([3]; BP, IE+L vs IIL group) was 78.7% and the “plasma AUC0-∞ higher in IE+L than in IIL” value ([3]; BP, IE+L vs IIL group) was 155.6%. The “plasma Cmax greater in IE+L than in IIL” value ([3]; BP, IE+L vs IIL group) was 6.3%, the “t0.5 prolongation when coadministered with elacridar” value ([3]; BP, IE+L vs IIL group) was 5.2 fold and the Tmax [3, 5] was 2.50 ± 0.71 h. For the same compound, the t0.5 [3, 5] was 28.77 ± 6.00 h, the “concentration of lapatinib after 24 h” value ([3]; each matrix sample (BP, CSF, BT), IIL group) was “undetectable” and the concentration at 0.25 h [3, 6] was 780 ng/mL. It also gave a concentration at 0.25 h [3, 7] of 700 ng/mL, a concentration at 0.5 h [3, 6] of 1520 ng/mL and a concentration at 0.5 h [3, 7] of 1680 ng/mL. It also gave a concentration at 1 h [3, 6] of 1980 ng/mL, a concentration at 1 h [3, 7] of 2050 ng/mL and a concentration at 2 h [3, 6] of 3070 ng/mL. The concentration at 2 h [3, 7] was 2100 ng/mL, the concentration at 3 h [3, 6] was 2460 ng/mL and the concentration at 3 h [3, 7] was 2040 ng/mL. It also gave a concentration at 4 h [3, 6] of 1310 ng/mL, a concentration at 4 h [3, 7] of 1580 ng/mL and a concentration at 6 h [3, 6] of 1340 ng/mL. The concentration at 6 h [3, 7] was 1360 ng/mL, the concentration at 8 h [3, 6] was 1780 ng/mL and the concentration at 12 h [3, 6] was 2300 ng/mL. For the same compound, the concentration at 12 h [3, 7] was 2280 ng/mL, the concentration at 24 h [3, 6] was 1230 ng/mL and the concentration at 24 h [3, 7] was 1300 ng/mL. For the same compound, the Cmax ([3]; male, Wistar, rat, plasma, po, 100 mg/kg) was 3260 ± 810 ng/mL, the AUC(0-inf) [3, 8] was 95100 ng·h/mL and the AUC(0-t) [3, 8] was 43600 ng·h/mL. The k el [3, 8] was 5.56e-06 s⁻¹, the MRT last [3, 8] was 11.1 ± 0.5 h and the AUC(0-inf) [3, 9] was 37200 ng·h/mL. The AUC(0-t) [3, 9] was 24400 ng·h/mL, the k el [3, 9] was 3.61e-05 s⁻¹ and the MRT last [3, 9] was 5.7 ± 0.43 h. The concentration at 0.25 h [3, 10] was 650 ng/mL, the concentration at 0.25 h [3, 11] was 530 ng/mL and the concentration at 0.5 h [3, 10] was 1330 ng/mL. It also gave a concentration at 0.5 h [3, 11] of 1210 ng/mL, a concentration at 1 h [3, 10] of 2050 ng/mL and a concentration at 1 h [3, 11] of 1830 ng/mL. It also gave a concentration at 2 h [3, 10] of 2210 ng/mL, a concentration at 2 h [3, 11] of 1950 ng/mL and a concentration at 3 h [3, 10] of 2380 ng/mL. The concentration at 4 h [3, 10] was 3260 ng/mL, the concentration at 4 h [3, 11] was 3830 ng/mL and the concentration at 6 h [3, 10] was 1940 ng/mL. The concentration at 6 h [3, 11] was 1560 ng/mL, the concentration at 8 h [3, 10] was 1940 ng/mL and the concentration at 8 h [3, 11] was 2130 ng/mL. The concentration at 12 h [3, 10] was 1500 ng/mL, the Tmax ([3]; male, Wistar, rat, plasma, po, 100 mg/kg, read-out: tmax) was 4 h and the “patients with BM responding to lapatinib therapy” value [4] was 2.6–6.0%.
